Results taken from patent publication US20100137208A1, “INTRATUMORALLY ADMINISTERED LACTOFERRIN IN THE TREATMENT OF MALIGNANTNEOPLASMS AND OTHER HYPERPROLIFERATIVE DISEASES” (priority 2002, published 2010).

How the values were obtained:
[1] = test system: murine squamous carcinoma cell line (SCCVII); assay: SCCVII floor-of-mouth tumor growth, oral rhLF and/or cisplatin; format: in vivo, C3H mice; details: in combination rhLF 200 mg/Kg oral days 5-12
Method: A murine squamous carcinoma cell line (SCCVII) was injected into the floor of the mouth through the neck skin of immunocompetent C3H mice (Day 0). […] Tumors were measured in three dimensions with calipers.
Tumor-bearing mice were randomized into a control group and seven groups receiving rhLF and/or cisplatin. RhLF (4 mg; 200 mg/Kg) was administered once daily by oral gavage for 8 days on days 5 through 12. Cisplatin was administered as a single dose of 5 mg/Kg given intraperitoneally either at the start of rhLF (day 5), in the middle (day 8) or at the end (day 12) of rhLF therapy. Animals were sacrificed on day 12 post-implantation and the residual tumor masses were measured and processed for later additional analyses.
A murine squamous carcinoma cell line (SCCVII) was injected into the floor of the mouth through the neck skin of immunocompetent C3H mice (Day 0) as described in Example 6. On Day 5 days after initial implantation, tumors were measured for the baseline, then treated with either cisplatin (Day 8, i.p., 5 mg/kg) alone or cisplatin plus three doses of oral rhLF (daily by gavage for 7-8 days on days 5 through 11/12). Animals were sacrificed on Day 11/12 and tumors measured.

[2] = test system: murine squamous carcinoma cell line (SCCVII); assay: SCCVII floor-of-mouth tumor growth, docetaxel with or without oral rhLF; format: in vivo, C3H mice; details: docetaxel i.v. bolus 31.3 mg/kg Day 8, in combination rhLF 200 mg/kg oral days 5 to 12
Method: A murine squamous carcinoma cell line (SCCVII) was injected into the floor of the mouth through the neck skin of immunocompetent C3H mice (Day 0) as described in Example 7. On Day 5 after initial implantation, tumors were measured for the baseline, then treated with either oral placebo alone (once daily from days 5 to 12; 6 animals), placebo and docetaxel (i.v. bolus of 31.3 mg/kg docetaxel on Day 8; 9 animals), or docetaxel plus oral rhLF (200 mg/kg, administered once daily by gavage from days 5 to 12; 9 animals). Animals were sacrificed on Day 14 and tumors measured. Docetaxel alone caused an inhibition of tumor growth relative to placebo and the combination of rhLF and docetaxel induced a further growth inhibition.

SMILES	TGI (%) Relative to Placebo ([1]; cisplatin 5 mg/Kg i.p. on day 5) [%]	TGI (%) Relative to Placebo ([1]; cisplatin 5 mg/Kg i.p. on day 8) [%]	TGI (%) Relative to Placebo ([1]; cisplatin 5 mg/Kg i.p. on day 12) [%]	TGI (%) Relative to Placebo ([1]; pooled cisplatin schedules (day 5, 8, 12)) [%]	TGI (%) Relative to Placebo ([2]; Day 14) [%]	Tumor Growth ([2]; measured Day 14)
N.N.[Cl][Pt][Cl] [CP, Cisplatin]	68	6	42	38	–	–
CC(=O)O[C@@]12CO[C@@H]1C[C@H](O)[C@@]1(C)C(=O)[C@H](O)C3=C(C)[C@@H](OC(=O)[C@H](O)[C@@H](NC(=O)OC(C)(C)C)c4ccccc4)C[C@@](O)([C@@H](OC(=O)c4ccccc4)[C@H]21)C3(C)C [Docetaxel]	–	–	–	–	59	2,103
